Source: patent US11077106B2, “Cancer treatment” (Janssen Pharmaceutica NV, priority 2017, dated 2021)
Like-named read-outs stand apart in the source and are kept apart here.

Experiments:
[1] = system: metastatic or surgically unresectable urothelial cancer harboring select FGFR genetic alterations
Method: Assessments of tumor responses as reported herein were performed according to Response Evaluation Criteria in Solid Tumors (RECIST) version 1.1.
Included patients were adults with measurable urothelial cancer per Response Evaluation Criteria in Solid Tumors version 1.1.
Patients were required to have at least 1 FGFR2/FGFR3 mutation or fusion per central lab testing of RNA from formalin-fixed, paraffin-embedded tumor samples, using a custom assay.
Patients had progressed during or following at least 1 line of prior systemic chemotherapy or less than 12 months of neoadjuvant or adjuvant chemotherapy.
The primary end point of this ongoing study is Objective Response Rate to the selected regimen (Regimen 3).
Secondary end points include progression-free survival (PFS), duration of response (DoR), Overall Survival, safety, predictive biomarker evaluation, and pharmacokinetics.
Patients were assessed for efficacy using radiographic imaging performed within 30 days of screening, once every 6 weeks for the first 3 months, once every 12 weeks for the next 9 months, then once every 4 to 6 months until disease progression. Tumor responses were assessed by investigators according to RECIST version 1.1 (Eisenhauer E A et al., Eur J Cancer, 2009, 45(2), 228-247).

[2] = system: subjects with metastatic or surgically unresectable urothelial cancer
Method: The study comprises a Screening Phase (molecular screening at any time prior to first dose and study screening within 30 days of first dose), a treatment phase, and a post-treatment follow-up phase. The treatment phase comprises the period from first dose until the end-of-treatment visit. The follow-up phase will extend until the subject has died, withdraws consent, is lost to follow-up, or the end of study, whichever comes first. Study treatment is administered on 28-day cycles. Prior to interim analysis 1, there were 2 treatment regimens.
Safety was assessed continuously by the investigator and based on medical review of AE reports and the results of vital sign measurements, physical examinations, clinical laboratory tests, ECOG performance status, and other safety evaluations.

[3] = Regimen 1, 10 mg intermittent dose (n = 33)
[4] = Regimen 2, 6 mg continuous dose (n = 78)
[5] = Regimen 3, 8 mg continuous dose (n = 59)
[6] = Any grade, Regimen 2, 6 mg continuous dose (n = 78)
[7] = Any grade, Regimen 3, 8 mg continuous dose (n = 96)
[8] = Grade ≥ 3, Regimen 1, 10 mg intermittent dose (n = 33)
[9] = Grade ≥ 3, Regimen 2, 6 mg continuous dose (n = 78)
[10] = Grade ≥ 3, Regimen 3, 8 mg continuous dose (n = 96)

## COc1cc(OC)cc(N(CCNC(C)C)c2ccc3ncc(-c4cnn(C)c4)nc3c2)c1 [erdafitinib, N-(3,5-dimethoxyphenyl)-N′-(1-methylethyl)-N-[3-(1-methyl-1H-pyrazol-4-y)quinoxalin-6-yl]ethane-1,2-diamine]
[1]; 8 mg/d continuous erdafitinib (Regimen 3), 44/59 patients
  patients with reduction in the sum of target lesion diameters: 75%
[1]; [3]
  Complete response: 2 (6) n (%)
  Disease control rate, confirmed, n (%): 24 (73) n (%)
  ORR, confirmed, n (%): 8 (24) n (%)
  Partial response: 6 (18) n (%)
  Progression-free survival, median, months: 4.0 months
  Stable disease: 16 (49) n (%)
[1]; [4]
  Complete response: 2 (3) n (%)
  Disease control rate, confirmed, n (%): 57 (73) n (%)
  ORR, confirmed, n (%): 27 (35) n (%)
  Partial response: 25 (32) n (%)
  Progression-free survival, median, months: 5.1 months
  Stable disease: 30 (39) n (%)
[1]; [5]
  Complete response: 3 (5) n (%)
  Disease control rate, confirmed, n (%): 48 (81) n (%)
  ORR, confirmed, n (%): 25 (42) n (%)
  Partial response: 22 (37) n (%)
  Progression-free survival, median, months: 5.6 months
  Stable disease: 23 (39) n (%)
[1]; across all dose regimens
  Median Progression Free Survival: 5.1 months
[1]; across all dose regimens (n = 170), 95% CI, 28%-43%
  confirmed Objective Response Rate: 35%
[1]; among all patients (n = 170)
  confirmed disease control rate: 76%
[1]; chemo-naïve, one prior line, or two or more prior lines of chemotherapy
  response to treatment in relation to number of prior lines of treatment: independent of the number of prior lines treatment
[1]; subset of 59 patients on Regimen 3
  median time to response: 1.41 months
[2]; [6]
  TRAE: Alopecia: 7 (9) n (%)
  TRAE: Asthenia: 12 (15) n (%)
  TRAE: Decreased appetite: 18 (23) n (%)
  TRAE: Diarrhea: 34 (44) n (%)
  TRAE: Dry eye: 2 (3) n (%)
  TRAE: Dry mouth: 31 (40) n (%)
  TRAE: Dry skin: 17 (22) n (%)
  TRAE: Dysgeusia: 10 (13) n (%)
  TRAE: Fatigue: 14 (18) n (%)
  TRAE: Hyperphosphatemia: 48 (62) n (%)
  TRAE: Lacrimation increased: 11 (14) n (%)
  TRAE: Nail dystrophy: 7 (9) n (%)
  TRAE: Onycholysis: 13 (17) n (%)
  TRAE: Palmar-plantar erythrodysaesthesia syndrome: 12 (15) n (%)
  TRAE: Paronychia: 11 (14) n (%)
  TRAE: Stomatitis: 32 (41) n (%)
  TRAE: Vision blurred: 5 (6) n (%)
[2]; [7]
  TRAE: Alopecia: 22 (23) n (%)
  TRAE: Asthenia: 13 (14) n (%)
  TRAE: Decreased appetite: 23 (24) n (%)
  TRAE: Diarrhea: 40 (42) n (%)
  TRAE: Dry eye: 17 (18) n (%)
  TRAE: Dry mouth: 40 (42) n (%)
  TRAE: Dry skin: 26 (27) n (%)
  TRAE: Dysgeusia: 32 (33) n (%)
  TRAE: Fatigue: 19 (20) n (%)
  TRAE: Hyperphosphatemia: 66 (69) n (%)
  TRAE: Lacrimation increased: 8 (8) n (%)
  TRAE: Nail dystrophy: 12 (13) n (%)
  TRAE: Onycholysis: 10 (10) n (%)
  TRAE: Palmar-plantar erythrodysaesthesia syndrome: 15 (16) n (%)
  TRAE: Paronychia: 14 (15) n (%)
  TRAE: Stomatitis: 45 (47) n (%)
  TRAE: Vision blurred: 15 (16) n (%)
[2]; [8]
  TRAE: Alopecia: 0 n (%)
  TRAE: Asthenia: 2 (6) n (%)
  TRAE: Decreased appetite: 0 n (%)
  TRAE: Diarrhea: 1 (3) n (%)
  TRAE: Dry eye: 0 n (%)
  TRAE: Dry mouth: 0 n (%)
  TRAE: Dry skin: 0 n (%)
  TRAE: Dysgeusia: 0 n (%)
  TRAE: Fatigue: 0 n (%)
  TRAE: Hyperphosphatemia: 0 n (%)
  TRAE: Lacrimation increased: 0 n (%)
  TRAE: Nail dystrophy: 0 n (%)
  TRAE: Onycholysis: 0 n (%)
  TRAE: Palmar-plantar erythrodysaesthesia syndrome: 0 n (%)
  TRAE: Paronychia: 0 n (%)
  TRAE: Stomatitis: 1 (3) n (%)
  TRAE: Vision blurred: 0 n (%)
[2]; [9]
  TRAE: Alopecia: 0 n (%)
  TRAE: Asthenia: 4 (5) n (%)
  TRAE: Decreased appetite: 2 (3) n (%)
  TRAE: Diarrhea: 0 n (%)
  TRAE: Dry eye: 1 (1) n (%)
  TRAE: Dry mouth: 2 (3) n (%)
  TRAE: Dry skin: 0 n (%)
  TRAE: Dysgeusia: 0 n (%)
  TRAE: Fatigue: 1 (1) n (%)
  TRAE: Hyperphosphatemia: 0 n (%)
  TRAE: Lacrimation increased: 0 n (%)
  TRAE: Nail dystrophy: 0 n (%)
  TRAE: Onycholysis: 5 (6) n (%)
  TRAE: Palmar-plantar erythrodysaesthesia syndrome: 0 n (%)
  TRAE: Paronychia: 0 n (%)
  TRAE: Stomatitis: 7 (9) n (%)
  TRAE: Vision blurred: 1 (1) n (%)
[2]; [10]
  TRAE: Alopecia: 0 n (%)
  TRAE: Asthenia: 3 (3) n (%)
  TRAE: Decreased appetite: 0 n (%)
  TRAE: Diarrhea: 3 (3) n (%)
  TRAE: Dry eye: 0 n (%)
  TRAE: Dry mouth: 0 n (%)
  TRAE: Dry skin: 0 n (%)
  TRAE: Dysgeusia: 1 (1) n (%)
  TRAE: Fatigue: 1 (1) n (%)
  TRAE: Hyperphosphatemia: 2 (2) n (%)
  TRAE: Lacrimation increased: 0 n (%)
  TRAE: Nail dystrophy: 3 (3) n (%)
  TRAE: Onycholysis: 1 (1) n (%)
  TRAE: Palmar-plantar erythrodysaesthesia syndrome: 4 (4) n (%)
  TRAE: Paronychia: 3 (3) n (%)
  TRAE: Stomatitis: 8 (8) n (%)
  TRAE: Vision blurred: 0 n (%)
[2]; across all dose regimens (22 patients)
  patients discontinued as the result of TRAEs: 11%
[2]; across all dose regimens, safety population N=207
  treatment-related deaths: no treatment-related deaths
[2]; across all dose regimens, safety population N=207 (n=1)
  patients reporting grade 4 TRAEs: 0.5%
[2]; across all dose regimens, safety population N=207 (n=69)
  patients reporting grade 3 TRAEs: 33%
[2]; across all dose regimens, safety population N=207 (n=195)
  patients reporting TRAEs: 94%
[2]; across all dose regimens, grade 2 [n=1] and grade 3 [n=1]
  patients reporting retinopathy: 2 patients
